Tests used:
[1] = molecular target: Dual specificity protein kinase CLK1 (Homo sapiens) (UniProt P49759); test: Inhibition of wild-type human full length CLK1 (M1 to I484 residues) expressed in bacterial expression system at 1 uM by Kinomescan method relative to control
[2] = molecular target: Mitogen-activated protein kinase kinase kinase 14 (Homo sapiens) (UniProt Q99558); test: Inhibition of wild-type human partial length NIK (L318 to P947 residues) expressed in mammalian expression system at 1 uM by Kinomescan method relative to control
[3] = molecular target: Cyclin-dependent kinase 4 (Homo sapiens) (UniProt P11802); test: Inhibition of wild-type human full length CDK4 (M1 to E303 residues) expressed in mammalian expression system at 1 uM by Kinomescan method relative to control
[4] = molecular target: Non-receptor tyrosine-protein kinase TYK2 (Homo sapiens) (UniProt P29597); test: Inhibition of wild-type human partial length TYK2 JH1 catalytic domain (V877 to C1187 residues) expressed in mammalian expression system at 1 uM by Kinomescan method relative to control
[5] = molecular target: Dual specificity protein kinase CLK3 (Homo sapiens) (UniProt P49761); test: Inhibition of wild-type human full length CLK3 (M1 to R490 residues) expressed in bacterial expression system at 1 uM by Kinomescan method relative to control
[6] = molecular target: Hepatocyte growth factor receptor (Homo sapiens) (UniProt P08581); test: Inhibition of wild-type human partial length MET (D1010 to S1367 residues) expressed in bacterial expression system at 1 uM by Kinomescan method relative to control
[7] = molecular target: Cyclin-dependent kinase 2 (Homo sapiens) (UniProt P24941); test: Inhibition of wild-type human full length CDK2 (M1 to L298 residues) expressed in bacterial expression system at 1 uM by Kinomescan method relative to control
[8] = molecular target: Ankyrin repeat and protein kinase domain-containing protein 1 (Homo sapiens) (UniProt Q8NFD2); test: Inhibition of wild-type human partial length ANKK1 (M1 to A305 residues) expressed in mammalian expression system at 1 uM by Kinomescan method relative to control
[9] = molecular target: Serine/threonine-protein kinase mTOR (Homo sapiens) (UniProt P42345); test: Inhibition of wild-type human partial length MTOR (L1382 to W2549 residues) expressed in mammalian expression system at 1 uM by Kinomescan method relative to control
[10] = molecular target: Tyrosine-protein kinase ABL2 (Homo sapiens) (UniProt P42684); test: Inhibition of wild-type human ABL2 (A248 to G542 residues) expressed in bacterial expression system at 1 uM by Kinomescan method relative to control
[11] = molecular target: Serine/threonine-protein kinase 26 (Homo sapiens) (UniProt Q9P289); test: Inhibition of wild-type human full length MST4 (M1 to P416 residues) expressed in mammalian expression system at 1 uM by Kinomescan method relative to control
[12] = molecular target: Serine/threonine-protein kinase SIK2 (Homo sapiens) (UniProt Q9H0K1); test: Inhibition of wild-type human full length SIK2 (M1 to N926 residues) expressed in bacterial expression system at 10 uM by Kinomescan method relative to control
[13] = molecular target: Serine/threonine-protein kinase PAK 3 (Homo sapiens) (UniProt O75914); test: Inhibition of wild-type human full length PAK3 (M1 to R544 residues) expressed in bacterial expression system at 10 uM by Kinomescan method relative to control
[14] = molecular target: Bone morphogenetic protein receptor type-1B (Homo sapiens) (UniProt O00238); test: Inhibition of wild-type human partial length BMPR1B (D178 to L502 residues) expressed in mammalian expression system at 10 uM by Kinomescan method relative to control
[15] = system: Tyrosine-protein kinase ABL1 (Homo sapiens), P00519 [T315I]; test: Inhibition of human phosphorylated ABL1 T315I mutant (S229 to K512 residues) expressed in mammalian expression system at 10 uM by Kinomescan method relative to control
[16] = molecular target: Mitogen-activated protein kinase kinase kinase 14 (Homo sapiens) (UniProt Q99558); test: Inhibition of wild-type human partial length NIK (L318 to P947 residues) expressed in mammalian expression system at 10 uM by Kinomescan method relative to control
[17] = molecular target: LIM domain kinase 1 (Homo sapiens) (UniProt P53667); test: Inhibition of wild-type human full length LIMK1 (M1 to D647 residues) expressed in bacterial expression system at 10 uM by Kinomescan method relative to control
[18] = system: Proto-oncogene tyrosine-protein kinase receptor Ret (Homo sapiens), P07949 [M918T]; test: Inhibition of human partial length RET M918T mutant (E713 to D1014 residues) expressed in bacterial expression system at 10 uM by Kinomescan method relative to control
[19] = molecular target: Mitotic checkpoint serine/threonine-protein kinase BUB1 (Homo sapiens) (UniProt O43683); test: Inhibition of wild-type human partial length BUB1 (Q724 to K1085 residues) expressed in mammalian expression system at 10 uM by Kinomescan method relative to control
[20] = molecular target: Calcium/calmodulin-dependent protein kinase kinase 1 (Homo sapiens) (UniProt Q8N5S9); test: Inhibition of wild-type human partial length CAMKK1 (R65 to E414 residues) expressed in bacterial expression system at 10 uM by Kinomescan method relative to control
[21] = molecular target: Mitogen-activated protein kinase kinase kinase 10 (Homo sapiens) (UniProt Q02779); test: Inhibition of wild-type human partial length MLK2 (V52 to W380 residues) expressed in bacterial expression system at 10 uM by Kinomescan method relative to control
[22] = molecular target: Serine/threonine-protein kinase pim-1 (Homo sapiens) (UniProt P11309); test: Inhibition of wild-type human partial length PIM1 (A15 to K313 residues) expressed in bacterial expression system at 10 uM by Kinomescan method relative to control
[23] = molecular target: Serine/threonine-protein kinase D2 (Homo sapiens) (UniProt Q9BZL6); test: Inhibition of wild-type human partial length PRKD2 (A519 to E838 residues) expressed in bacterial expression system at 10 uM by Kinomescan method relative to control
[24] = molecular target: Casein kinase I isoform alpha-like (Homo sapiens) (UniProt Q8N752); test: Inhibition of wild-type human full length CSNK1A1L (M1 to N337 residues) expressed in bacterial expression system at 10 uM by Kinomescan method relative to control
[25] = molecular target: Mitogen-activated protein kinase kinase kinase 6 (Homo sapiens) (UniProt O95382); test: Inhibition of wild-type human partial length ASK2 (M278 to R972 residues) expressed in mammalian expression system at 10 uM by Kinomescan method relative to control
[26] = molecular target: Non-receptor tyrosine-protein kinase TNK1 (Homo sapiens) (UniProt Q13470); test: Inhibition of wild-type human full length TNK1 (M1 to P661 residues) expressed in bacterial expression system at 10 uM by Kinomescan method relative to control
[27] = molecular target: MAP/microtubule affinity-regulating kinase 3 (Homo sapiens) (UniProt P27448); test: Inhibition of wild-type human full length MARK3 (M1 to L729 residues) expressed in bacterial expression system at 10 uM by Kinomescan method relative to control

## O=C(Nc1cccc([C@@H]2CN(c3ncnc4[nH]ccc34)CCN2CCO)c1)Nc1c(F)cccc1N1CCCC1
[1]
  inhibition: 84%
[2]
  inhibition: 84%
[3]
  inhibition: 100%
[4]
  inhibition: 0%
[5]
  inhibition: 94%
[6]
  inhibition: 95%
[7]
  inhibition: 99%
[8]
  inhibition: 100%
[9]
  inhibition: 96%
[10]
  inhibition: 97%
[11]
  inhibition: 54%

## O=C(Nc1cccc([C@H]2CCCN(c3ncnc4[nH]ccc34)C2)c1)Nc1ccccc1N1CCCC1
[12]
  inhibition: 84%
[13]
  inhibition: 4.8%
[14]
  inhibition: 46%
[15]
  inhibition: 56%
[16]
  inhibition: 75%
[17]
  inhibition: 97%
[18]
  inhibition: 0%
[19]
  inhibition: 55%
[20]
  inhibition: 82%
[21]
  inhibition: 100%
[22]
  inhibition: 84%
[23]
  inhibition: 85%
[24]
  inhibition: 100%
[25]
  inhibition: 73%
[26]
  inhibition: 65%
[27]
  inhibition: 100%

Source: ChEMBL document CHEMBL4387741, “Optimization of novel reversible Bruton's tyrosine kinase inhibitors identified using Tethering-fragment-based screens” (Bioorg Med Chem, 2019)
